The values that follow come from PubChem BioAssay (NCI).

Among the test systems are A498 renal; M14 melanoma; MOLT-4 leukemia; NCI-H226 lung; NCI-H23 lung; OVCAR-3 ovarian; OVCAR-4 ovarian; PC-3 prostate; RPMI-8226 leukemia; SNB-19 CNS; UO-31 renal; SK-MEL-28 melanoma.
Common to all, as to assay: growth of human tumour cells (NCI), 48 h

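Cultured in 96-well plates, cells were exposed to test compound for 48 hours across five concentrations. The concentration for full growth arrest is given as TGI.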 Some results are limits rather than exact numbers.

Turning to `CC(=O)C1=C(N=[N+]=[N-])c2cccc3cccc(c23)C1=O`, the TGI was found to be 71 µM with A498 renal; 26.5 µM with M14 melanoma; 33.2 µM in the assay with MOLT-4 leukemia; 64.2 µM in the assay on NCI-H226 lung; 43.4 µM in the assay on NCI-H23 lung; 24.6 µM in the assay with OVCAR-3 ovarian. The TGI in the assay on OVCAR-4 ovarian amounted to 49.1 µM; in the assay with PC-3 prostate it was 53.2 µM; with RPMI-8226 leukemia, 42.8 µM; in the assay with SNB-19 CNS, 91.7 µM; in the assay on UO-31 renal it was 29.7 µM.

For the molecule `CCOc1ccc2c(c1)/C(=C(\C(Cl)=C(Cl)Cl)[N+](=O)[O-])N2`, the TGI in the assay with A498 renal, with M14 melanoma, in the assay with MOLT-4 leukemia, in the assay with NCI-H226 lung, in the assay with NCI-H23 lung and with OVCAR-3 ovarian was above 100 µM throughout. Further, the TGI with OVCAR-4 ovarian, in the assay on PC-3 prostate, in the assay on RPMI-8226 leukemia, with SK-MEL-28 melanoma, with SNB-19 CNS and in the assay on UO-31 renal was above 100 µM each time.

As for `Cc1c(-c2cc3n(n2)C(c2cccs2)C(C#N)=C(c2ccccc2)N3)c(=O)n(-c2ccccc2)n1C` (stereo not drawn), the TGI in the assay on A498 renal, with MOLT-4 leukemia, in the assay on NCI-H226 lung, with NCI-H23 lung, with OVCAR-3 ovarian and in the assay with OVCAR-4 ovarian was above 100 µM each time. The TGI in the assay on SK-MEL-28 melanoma, with SNB-19 CNS and with UO-31 renal was above 100 µM throughout.

Turning to `CC(=O)c1ccc(Oc2ccc(/C(C)=N\N=C(N)N)cc2)cc1`, the TGI in the assay with A498 renal was determined as 7.53 µM; in the assay with M14 melanoma, 4.76 µM; in the assay on MOLT-4 leukemia it was 12.2 µM; in the assay with NCI-H23 lung, 12.8 µM; in the assay on OVCAR-3 ovarian it was 4.89 µM; in the assay on OVCAR-4 ovarian, 23 µM. For the same molecule, the TGI with RPMI-8226 leukemia amounted to 8.7 µM; in the assay on SK-MEL-28 melanoma, 17.4 µM; with SNB-19 CNS it was 22.5 µM.

As to `O=P(O)(O)C(O)/C=C/c1ccccc1` (stereo not drawn), the TGI with A498 renal, in the assay with M14 melanoma, in the assay with MOLT-4 leukemia, with NCI-H226 lung, in the assay on NCI-H23 lung and with OVCAR-3 ovarian was above 100 µM each time. Besides, the TGI in the assay with OVCAR-4 ovarian, in the assay with PC-3 prostate, in the assay with RPMI-8226 leukemia, in the assay on SK-MEL-28 melanoma, in the assay on SNB-19 CNS and in the assay with UO-31 renal was above 100 µM in each case.

For `CC(C)(C)[Si](C)(C)OCCCC#CCO`, the TGI in the assay with A498 renal, in the assay with M14 melanoma, with MOLT-4 leukemia, with NCI-H23 lung, in the assay with OVCAR-4 ovarian and with RPMI-8226 leukemia was above 100 µM each time. Besides, the TGI in the assay on SK-MEL-28 melanoma, in the assay with SNB-19 CNS and with UO-31 renal was above 100 µM throughout.

As to `Nc1nc(Cl)cc(NCC2(CO)CCC(Cc3ccccc3)C2)n1` (stereo not drawn), the TGI is above 65.8 µM in the assay on A498 renal; 46.6 µM in the assay with M14 melanoma; 30.6 µM in the assay on MOLT-4 leukemia; 98.7 µM with NCI-H226 lung; 72.3 µM in the assay on NCI-H23 lung; above 100 µM in the assay on OVCAR-3 ovarian. For the same molecule, the TGI in the assay with OVCAR-4 ovarian was above 100 µM; in the assay with PC-3 prostate, above 96.1 µM; in the assay on RPMI-8226 leukemia it was 62.7 µM; with SK-MEL-28 melanoma, above 100 µM; in the assay with SNB-19 CNS it was above 100 µM; with UO-31 renal, above 92.6 µM.

Regarding `C=C(C=O)c1c2c(nc3ccccc13)C(=O)c1ccccc1C2=O`, the TGI in the assay with A498 renal was 3.76 µM; with M14 melanoma, 1.6 µM; in the assay with MOLT-4 leukemia it was 0.997 µM; with NCI-H226 lung it was 1.97 µM; in the assay with NCI-H23 lung, 2.85 µM; with OVCAR-3 ovarian, 2.35 µM. Besides, the TGI with PC-3 prostate is 10.6 µM; in the assay on SNB-19 CNS, 2.8 µM; in the assay with UO-31 renal it was above 29 µM.

Turning to `CC1CCCC2=C1C(c1ccc(Cl)cc1)n1c(s/c(=C\c3ccc(Cl)cc3)c1=O)=N2` (stereo not drawn), the TGI in the assay on A498 renal, in the assay with M14 melanoma, in the assay on PC-3 prostate, in the assay on RPMI-8226 leukemia, in the assay on SK-MEL-28 melanoma and in the assay with SNB-19 CNS was above 100 µM throughout. For the same molecule, the TGI in the assay with UO-31 renal is above 100 µM.

On to `CC(=O)OC1CC2CCC1(C)C2(C)C` (stereo not drawn), for which the TGI with A498 renal, in the assay with M14 melanoma, in the assay on MOLT-4 leukemia, with NCI-H226 lung, with NCI-H23 lung and with OVCAR-3 ovarian was above 100 µM throughout. Further, the TGI in the assay with OVCAR-4 ovarian, in the assay on PC-3 prostate, with RPMI-8226 leukemia, with SK-MEL-28 melanoma, with SNB-19 CNS and in the assay with UO-31 renal was above 100 µM throughout.

Take `CC(C)OP(=O)(CN(C)/C(F)=N\C(F)(F)F)OC(C)C`: the TGI in the assay on A498 renal, in the assay with M14 melanoma, with MOLT-4 leukemia, in the assay with NCI-H226 lung, in the assay on NCI-H23 lung and in the assay with OVCAR-3 ovarian was above 100 µM in each case. For the same molecule, the TGI with PC-3 prostate, with SK-MEL-28 melanoma, with SNB-19 CNS and in the assay on UO-31 renal was above 100 µM in each case.

On to `NC(=O)CCC(NCc1c2ccccc2[n+]([O-])c2ccccc12)C(=O)O` (stereo not drawn), for which the TGI in the assay on A498 renal, in the assay on M14 melanoma, with MOLT-4 leukemia, in the assay with NCI-H226 lung, in the assay with NCI-H23 lung and in the assay with OVCAR-3 ovarian was above 100 µM throughout. For the same molecule, the TGI in the assay with OVCAR-4 ovarian, in the assay with RPMI-8226 leukemia, in the assay on SK-MEL-28 melanoma, in the assay with SNB-19 CNS and in the assay with UO-31 renal was above 100 µM each time.

Turning to `C=C1c2c(cc3c(c2O)c(=O)c2ccccc2n3C)OC1(C)C`, the TGI in the assay with A498 renal was above 100 µM; in the assay on M14 melanoma it was above 100 µM; with MOLT-4 leukemia it was above 100 µM; in the assay on NCI-H226 lung it was above 100 µM; with NCI-H23 lung, 27.3 µM; in the assay on OVCAR-3 ovarian it was above 100 µM. Also, the TGI with RPMI-8226 leukemia, in the assay with SK-MEL-28 melanoma, with SNB-19 CNS and in the assay on UO-31 renal was above 100 µM throughout.
